US20220016215A1, “GIP RECEPTOR AGONIST PEPTIDE COMPOUNDS AND USES THEREOF” (TAKEDA PHAARMACEUTICAL COMPANY LIMITED, priority 2018, published 2022)
Marks after values point to notes of the source that are not given here.

What was measured:
[1] = biological target: T1, human GIPR (Homo sapiens, UniProt P48546); test: Agonist activity on human GIPR, CRE-luciferase reporter assay (increase in intracellular cAMP as indicator); assay type: cell-based; details: GLP1R EC50 / GIPR EC50
T1 construct: expressed in transfected cells
T1 sequence (P48546 22-466): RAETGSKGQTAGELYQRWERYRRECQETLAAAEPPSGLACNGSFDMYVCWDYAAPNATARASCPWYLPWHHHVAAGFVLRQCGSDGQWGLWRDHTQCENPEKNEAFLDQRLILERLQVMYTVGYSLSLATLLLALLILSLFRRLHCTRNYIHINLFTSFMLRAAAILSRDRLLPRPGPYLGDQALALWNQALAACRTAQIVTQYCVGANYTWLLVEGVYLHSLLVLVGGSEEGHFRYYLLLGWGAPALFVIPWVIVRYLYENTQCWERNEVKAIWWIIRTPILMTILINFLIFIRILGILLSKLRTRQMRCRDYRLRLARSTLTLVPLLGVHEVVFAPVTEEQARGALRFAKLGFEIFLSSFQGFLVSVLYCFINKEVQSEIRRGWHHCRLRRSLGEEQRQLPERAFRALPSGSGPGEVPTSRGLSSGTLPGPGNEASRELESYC
Description: The human GIPR gene having an identical sequence to Genebank Accession No. U39231 is cloned into a pMSRα-neo vector to prepare hGIPR/pMSRα-neo.
(2) Construction of Reporter Plasmid Expressing Cell
Luciferase reporter gene with a cAMP-responsive sequence located upstream is transferred to a CHO-K1 cell to construct a CRE-LUC/CHO-K1 cell.
(4) Transfer of Human GIPR Gene to CRE-LUC/CHO-K1 Cell and Obtaining of Expressing Cell
The plasmid hGIPR/pMSRα-neo obtained in (1) is transferred to the CRE-LUC/CHO-K1 cell obtained in (2) to obtain a transformant. Subsequently, the cell line inducing the luciferase expression, hGIPR/CRE-LUC/CHO-K1 cell, is selected from the obtained transformant by adding GIP.
25 μL each of the hGIPR/CRE-LUC/CHO-K1 cell is inoculated in a 384-well white plate (Corning) in such a way as to provide 5×10^3 cells/well and may be cultured in a HamF12 medium containing 10% fetal bovine serum, 100 U/mL penicillin, and 100 μg/mL streptomycin in a CO2 incubator at 37° C. overnight. 5 μL of a medium containing a test compound is added to the cells and incubated for 4 hours at the indicated concentration in a CO2 incubator at 37° C. Steady-Glo (Promega) is added in amounts of 30 μL and shaken under light shielding. Twenty minutes later, luciferase activity is measured using a plate reader Envision (PerkinElmer). The GIPR agonist activity is calculated with increase in intracellular cAMP concentration as the indicator when the luciferase activity in the presence of 10 nM of GIP was 100% and the luciferase activity in the case of adding DMSO instead of the test compound was 0%.

[2] = tested on: morphine (0.6 mg/kg, s.c.)-induced emesis in ferrets; test: Morphine-induced acute emetic model in male ferrets; assay type: in vivo, ferret; details: for Comment: Anti-Emetic Activity (inhibition) on morphine-induced emesis: summary of the morphine experiments
Procedure: Example 6—In-Vivo Effect of GIP Receptor Agonist Peptides on Emesis in Morphine Induced Emesis Model in Live Male Ferrets
Effect of subcutaneously administered GIP receptor agonist peptide in morphine-induced acute emetic model.
To evaluate the antiemetic effect, the GIP receptor agonist peptides other than natural human GIP were subcutaneously administered into male ferrets 30 minutes before morphine administration. […]. Up to 60 minutes after morphine administration, the condition of the ferrets was monitored to record the frequencies and time points of abdominal contraction motions, vomiting behaviors, licking with the tongue, and fidgety behavior occurring
Effects of Subcutaneously Administered GIP Receptor Agonist Peptides in Morphine-Induced Acute Emetic Model
30 nmol/kg of Compounds 3 and 5 were dissolved with a vehicle (0.09 w/v % tween 80/10% DMSO/saline), respectively, to prepare test solutions. […] of the test solutions and the vehicle were subcutaneously administered to ferrets (4 in each group), respectively. At the time of each of 4 hours, after administration, 0.6 mg/kg of morphine was subcutaneously administered. […] See results in Tables 6, 7 and 8.
(§1) 10 nmol/kg of each compound dissolved with a vehicle (0.09 w/v % tween 80/10% DMSO/saline) respectively, to prepare test solutions. […] of the test solutions and the vehicle were subcutaneously administered to ferrets (4 in each group), respectively. At the time of each of 4 hours, or 120 hours after administration, 0.6 mg/kg of morphine was subcutaneously administered. Up to 360 minutes after morphine administration, the condition of the ferrets was monitored to record the frequencies and time points of abdominal contraction motions, vomiting behaviors, licking with the tongue, and fidgety behavior occurring.
as §1, with “30 nmol/kg” for “10 nmol/kg”, “80/10% DMSO/saline),respectively,” for “80/10% DMSO/saline) respectively,”

[3] = ferrets, morphine 0.6 mg/kg s.c. 0.5 h after drug, 106-[…] s.c. (30 nmol/kg)
[4] = ferrets, morphine 0.6 mg/kg s.c. 0.5 h after drug, 106-[…] s.c. (30 nmol/kg), non-responders counted as 30 min
[5] = male ferrets, 30 nmol/kg s.c., morphine 0.6 mg/kg s.c. 4 hours after administration

SMILES: CC[C@H](C)[C@H](NC(=O)[C@H](CO)NC(=O)[C@H](Cc1ccc(O)cc1)NC(=O)[C@H](CC(=O)O)NC(=O)[C@H](CO)NC(=O)[C@@H](NC(=O)[C@H](Cc1ccccc1)NC(=O)[C@@H](NC(=O)CNC(=O)[C@H](CCC(=O)O)NC(=O)[C@H](C)NC(=O)[C@H](Cc1ccc(O)cc1)NC(C)=O)[C@@H](C)O)[C@@H](C)CC)C(=O)N[C@@H](C)C(=O)N[C@@H](CCSC)C(=O)N[C@@H](CC(=O)O)C(=O)N[C@@H](CCCCN)C(=O)N[C@H](C(=O)N[C@@H](Cc1c[nH]cn1)C(=O)N[C@@H](CCC(N)=O)C(=O)N[C@@H](CCC(N)=O)C(=O)N[C@@H](CC(=O)O)C(=O)N[C@@H](Cc1ccccc1)C(=O)N[C@H](C(=O)N[C@@H](CC(N)=O)C(=O)N[C@@H](Cc1c[nH]c2ccccc12)C(=O)N[C@@H](CC(C)C)C(=O)N[C@@H](CC(C)C)C(=O)N[C@@H](C)C(=O)N[C@@H](CCC(N)=O)C(=O)N[C@@H](CCCCN)C(=O)NCC(=O)N[C@@H](CCCCN)C(=O)N[C@@H](CCCCN)C(=O)N[C@@H](CC(N)=O)C(=O)N[C@@H](CC(=O)O)C(=O)N[C@@H](Cc1c[nH]c2ccccc12)C(=O)N[C@@H](CCCCN)C(=O)N[C@@H](Cc1c[nH]cn1)C(=O)N[C@@H](CC(N)=O)C(=O)N[C@H](C(=O)N[C@H](C(=O)N[C@@H](CCC(N)=O)C(=O)O)[C@@H](C)CC)[C@@H](C)CC)C(C)C)[C@@H](C)CC [Compound 1]
- Selectivity Ratio (B/A) [1]: 30,200
- Emesis: Duration [2, 3]: 0.0 ± 0.0 min
- Emesis: Frequency [2, 3]: 0.0 ± 0.0
- Emesis: No. of animals (responder/used) [2, 3]: 0/4 #
- Fidget: Duration [2, 3]: 0.0 ± 0.0 min
- Fidget: Frequency [2, 3]: 0.0 ± 0.0
- Fidget: No. of animals (responder/used) [2, 3]: 0/4
- Licking: Duration [2, 3]: 0.0 ± 0.0 min
- Licking: Frequency [2, 3]: 0.0 ± 0.0
- Licking: No. of animals (responder/used) [2, 3]: 0/4 #
- Retching: Duration [2, 3]: 0.0 ± 0.0 min
- Retching: Frequency [2, 3]: 0.0 ± 0.0
- Retching: No. of animals (responder/used) [2, 3]: 0/4 #
- Vomiting: Duration [2, 3]: 0.0 ± 0.0 min
- Vomiting: Frequency [2, 3]: 0.0 ± 0.0
- Vomiting: No. of animals (responder/used) [2, 3]: 0/4
- Emesis: Latency [2, 4]: 30.0 ± 0.0 min
- Fidget: Latency [2, 4]: 30.0 ± 0.0 min
- Licking: Latency [2, 4]: 30.0 ± 0.0 min
- Retching: Latency [2, 4]: 30.0 ± 0.0 min
- Vomiting: Latency [2, 4]: 30.0 ± 0.0 min
- Attenuation of morphine-induced emesis (in words) ([2]; male ferrets, 30 nmol/kg s.c. 30 minutes before morphine 0.6 mg/kg s.c.): completely attenuated
- Comment: Anti-Emetic Activity (inhibition) on morphine-induced emesis ([2]; male ferrets): 100% inhibition

SMILES: CCCCCCCCCCCCCCCC(=O)NCCCC[C@H](NC(=O)[C@H](CC(=O)O)NC(=O)[C@H](CCSC)NC(=O)[C@H](C)NC(=O)[C@@H](NC(=O)[C@H](CO)NC(=O)[C@H](Cc1ccc(O)cc1)NC(=O)[C@H](CC(=O)O)NC(=O)[C@H](CO)NC(=O)[C@@H](NC(=O)[C@H](Cc1ccccc1)NC(=O)[C@@H](NC(=O)CNC(=O)[C@H](CCC(=O)O)NC(=O)[C@H](C)NC(=O)[C@@H](N)Cc1ccc(O)cc1)[C@@H](C)O)[C@@H](C)CC)[C@@H](C)CC)C(=O)N[C@H](C(=O)N[C@@H](Cc1c[nH]cn1)C(=O)N[C@@H](CCC(N)=O)C(=O)N[C@@H](CCC(N)=O)C(=O)N[C@@H](CC(=O)O)C(=O)N[C@@H](Cc1ccccc1)C(=O)N[C@H](C(=O)N[C@@H](CC(N)=O)C(=O)N[C@@H](Cc1c[nH]c2ccccc12)C(=O)N[C@@H](CC(C)C)C(=O)N[C@@H](CC(C)C)C(=O)N[C@@H](C)C(=O)N[C@@H](CCC(N)=O)C(=O)N[C@@H](CCCCN)C(=O)NCC(=O)N[C@@H](CCCCN)C(=O)N[C@@H](CCCCN)C(=O)N[C@@H](CC(N)=O)C(=O)N[C@@H](CC(=O)O)C(=O)N[C@@H](Cc1c[nH]c2ccccc12)C(=O)N[C@@H](CCCCN)C(=O)N[C@@H](Cc1c[nH]cn1)C(=O)N[C@@H](CC(N)=O)C(=O)N[C@H](C(=O)N[C@H](C(=O)N[C@@H](CCC(N)=O)C(N)=O)[C@@H](C)CC)[C@@H](C)CC)C(C)C)[C@@H](C)CC [Compound 3]
- Selectivity Ratio (B/A) [1]: 447
- Ferrets in which the vomiting symptom was observed (in words) ([2]; ferrets, morphine administered 4 hours after administration): all of the 4 ferrets
- Duration of emesis [2, 5]: 5.5 ± 7.1 min
- Emetic episodes [2, 5]: 21.8 ± 19.2
- Latency period [2, 5]: 7.0 ± 2.9 min
- No. of animals that did not vomit [2, 5]: 0
- Emetic episodes, % Inhibition of mean value ([2]; male ferrets, 30 nmol/kg s.c., morphine 0.6 mg/kg s.c. 4 hours after administration, vs vehicle): [−143%]
- Comment: Anti-Emetic Activity (inhibition) on morphine-induced emesis ([2]; male ferrets): partial inhibition
